According to ChEMBL document CHEMBL4808201, “Novel triazole-sulfonamide bearing pyrimidine moieties with carbonic anhydrase inhibitory action: Design, synthesis, computational and enzyme inhibition studies” (Bioorg Med Chem Lett, 2021):

biological target: Carbonic anhydrase 9 (Homo sapiens, UniProt Q16790); assay: Inhibition of human CA9 measured by stopped flow CO2 hydrase assay

Ki | SMILES
192 nM | NS(=O)(=O)c1ccc(-n2cc(COc3ccnc(N4CCN(C(c5ccccc5)c5ccccc5)CC4)n3)nn2)cc1
30.2 nM | Cc1cc(OCc2cn(-c3ccc(S(N)(=O)=O)cc3)nn2)nc(N2CCOCC2)n1
35.8 nM | Cc1cc(OCc2cn(-c3ccc(S(N)(=O)=O)cc3)nn2)nc(N2CCCCC2)n1
42.5 nM | NS(=O)(=O)c1ccc(-n2cc(COc3ccnc(N4CCOCC4)n3)nn2)cc1
21.4 nM | Cc1cc(OCc2cn(-c3ccc(S(N)(=O)=O)cc3)nn2)nc(N2CCN(C(c3ccccc3)c3ccccc3)CC2)n1
9.1 nM | Cc1cc(OCc2cn(-c3ccc(S(N)(=O)=O)cc3)nn2)nc(N2CCN(c3ccccn3)CC2)n1
39.1 nM | NS(=O)(=O)c1ccc(-n2cc(COc3ccnc(N4CCN(Cc5ccccc5)CC4)n3)nn2)cc1
466 nM | Cc1cc(OCc2cn(-c3ccc(S(N)(=O)=O)cc3)nn2)nc(N2CCN(c3ccc(F)cc3)CC2)n1
16.1 nM | CCN1CCN(c2nc(C)cc(OCc3cn(-c4ccc(S(N)(=O)=O)cc4)nn3)n2)CC1
29.7 nM | COc1ccc(-c2nc(C)cc(OCc3cn(-c4ccc(S(N)(=O)=O)cc4)nn3)n2)cc1
41.1 nM | Cc1cc(OCc2cn(-c3ccc(S(N)(=O)=O)cc3)nn2)nc(N2CCN(Cc3ccccc3)CC2)n1
32 nM | Cc1cc(OCc2cn(-c3ccc(S(N)(=O)=O)cc3)nn2)nc(-c2ncccc2C#N)n1
24.1 nM | Cc1cc(OCc2cn(-c3ccc(S(N)(=O)=O)cc3)nn2)nc(N2CCN(C)CC2)n1
32.2 nM | NS(=O)(=O)c1ccc(-n2cc(COc3ccnc(N4CCN(Cc5ccc(Cl)cc5)CC4)n3)nn2)cc1
25.8 nM | NS(=O)(=O)c1ccc(-n2cc(COc3ccnc(N4CCN(c5ccc(F)cc5)CC4)n3)nn2)cc1
33.4 nM | CCOC(=O)N1CCN(c2nc(C)cc(OCc3cn(-c4ccc(S(N)(=O)=O)cc4)nn3)n2)CC1
44.7 nM | COc1ccccc1N1CCN(c2nccc(OCc3cn(-c4ccc(S(N)(=O)=O)cc4)nn3)n2)CC1
51.4 nM | COc1ccc(-c2nccc(OCc3cn(-c4ccc(S(N)(=O)=O)cc4)nn3)n2)cc1
41.3 nM | NS(=O)(=O)c1ccc(-n2cc(COc3ccnc(N4CCCCC4)n3)nn2)cc1
22.7 nM | CCN1CCN(c2nccc(OCc3cn(-c4ccc(S(N)(=O)=O)cc4)nn3)n2)CC1
26.3 nM | NS(=O)(=O)c1ccc(-n2cc(COc3ccnc(N4CCN(c5ccccc5)CC4)n3)nn2)cc1
16.8 nM | NS(=O)(=O)c1ccc(-n2cc(COc3ccnc(N4CCN(c5ccccn5)CC4)n3)nn2)cc1
155 nM | N#Cc1cccnc1-c1nccc(OCc2cn(-c3ccc(S(N)(=O)=O)cc3)nn2)n1
1.6 nM | CCOC(=O)N1CCN(c2nccc(OCc3cn(-c4ccc(S(N)(=O)=O)cc4)nn3)n2)CC1
2.9 nM | Cc1cc(OCc2cn(-c3ccc(S(N)(=O)=O)cc3)nn2)nc(N2CCN(Cc3ccc(Cl)cc3)CC2)n1
32.8 nM | Cc1cc(OCc2cn(-c3ccc(S(N)(=O)=O)cc3)nn2)nc(N2CCN(c3ccccc3)CC2)n1
30.4 nM | CN1CCN(c2nccc(OCc3cn(-c4ccc(S(N)(=O)=O)cc4)nn3)n2)CC1
36.3 nM | COc1ccccc1N1CCN(c2nc(C)cc(OCc3cn(-c4ccc(S(N)(=O)=O)cc4)nn3)n2)CC1
